Experimental data taken from ChEMBL document CHEMBL4507269, “Data for DCP probe BAY-386” (2021).

Tests used:
[1] = molecular target: Ephrin type-B receptor 1 (Homo sapiens) (UniProt P54762); conditions: Compound concentration 1000.0 nM
[2] = molecular target: Platelet-derived growth factor receptor alpha (Homo sapiens) (UniProt P16234); conditions: Compound concentration 1000.0 nM
[3] = molecular target: Serine/threonine-protein kinase haspin (Homo sapiens) (UniProt Q8TF76); conditions: Compound concentration 1000.0 nM
[4] = molecular target: Serine/threonine-protein kinase TAO1 (Homo sapiens) (UniProt Q7L7X3); conditions: Compound concentration 1000.0 nM
[5] = molecular target: Serine/threonine-protein kinase 4 (Homo sapiens) (UniProt Q13043); conditions: Compound concentration 1000.0 nM
[6] = system: Receptor-type tyrosine-protein kinase FLT3 (Homo sapiens), P36888 [K663Q]; conditions: Compound concentration 1000.0 nM
[7] = system: Tyrosine-protein kinase ABL1 (Homo sapiens), P00519 [M351T]; conditions: Compound concentration 1000.0 nM
[8] = molecular target: 5-hydroxytryptamine receptor 2B (Homo sapiens) (UniProt P41595); test: 5-HT2B (h) Eurofins-Cerep Cellular and Nuclear Receptor Functional Assays; conditions: Compound concentration 10.0 uM
[9] = system: Epidermal growth factor receptor (Homo sapiens), P00533 [L858R,T790M]; conditions: Compound concentration 1000.0 nM
[10] = molecular target: Phosphatidylinositol 5-phosphate 4-kinase type-2 gamma (Homo sapiens) (UniProt Q8TBX8); conditions: Compound concentration 1000.0 nM
[11] = molecular target: Serine/threonine-protein kinase NLK (Homo sapiens) (UniProt Q9UBE8); conditions: Compound concentration 1000.0 nM
[12] = molecular target: Serine/threonine-protein kinase WNK2 (Homo sapiens) (UniProt Q9Y3S1); conditions: Compound concentration 1000.0 nM
[13] = system: Tyrosine-protein kinase ABL1 (Homo sapiens), P00519 [F317L]; conditions: Compound concentration 1000.0 nM
[14] = molecular target: Phosphatidylinositol 4,5-bisphosphate 3-kinase catalytic subunit delta isoform (Homo sapiens) (UniProt O00329); conditions: Compound concentration 1000.0 nM
[15] = molecular target: Serine/threonine-protein kinase TAO3 (Homo sapiens) (UniProt Q9H2K8); conditions: Compound concentration 1000.0 nM
[16] = molecular target: Mitogen-activated protein kinase kinase kinase 14 (Homo sapiens) (UniProt Q99558); conditions: Compound concentration 1000.0 nM
[17] = molecular target: Insulin receptor (Homo sapiens) (UniProt P06213); conditions: Compound concentration 1000.0 nM
[18] = species: Rattus norvegicus; conditions: Compound concentration 10.0 uM
[19] = molecular target: T1, Alpha-1A adrenergic receptor (Homo sapiens) (UniProt P35348); conditions: Compound concentration 10.0 uM
T1 sequence (whole entry): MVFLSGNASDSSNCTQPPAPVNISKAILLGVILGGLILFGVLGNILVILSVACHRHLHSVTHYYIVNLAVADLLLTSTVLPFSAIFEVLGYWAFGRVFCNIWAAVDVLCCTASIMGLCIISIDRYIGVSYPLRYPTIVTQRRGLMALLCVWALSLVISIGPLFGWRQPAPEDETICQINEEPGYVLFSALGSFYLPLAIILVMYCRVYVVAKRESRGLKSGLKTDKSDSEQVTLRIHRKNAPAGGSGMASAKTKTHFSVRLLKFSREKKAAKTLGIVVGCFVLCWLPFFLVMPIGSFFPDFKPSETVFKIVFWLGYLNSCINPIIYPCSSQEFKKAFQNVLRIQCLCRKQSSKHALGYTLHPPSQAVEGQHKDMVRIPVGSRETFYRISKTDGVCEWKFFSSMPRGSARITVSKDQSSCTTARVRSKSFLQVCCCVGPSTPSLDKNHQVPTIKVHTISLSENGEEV

[20] = molecular target: Ephrin type-A receptor 1 (Homo sapiens) (UniProt P21709); conditions: Compound concentration 1000.0 nM
[21] = molecular target: Insulin receptor-related protein (Homo sapiens) (UniProt P14616); conditions: Compound concentration 1000.0 nM
[22] = molecular target: Dual specificity testis-specific protein kinase 1 (Homo sapiens) (UniProt Q15569); conditions: Compound concentration 1000.0 nM
[23] = molecular target: Receptor-type tyrosine-protein kinase FLT3 (Homo sapiens) (UniProt P36888); conditions: Compound concentration 1000.0 nM
[24] = molecular target: Ribosomal protein S6 kinase alpha-3 (Homo sapiens) (UniProt P51812); conditions: Compound concentration 1000.0 nM
[25] = molecular target: Ephrin type-A receptor 3 (Homo sapiens) (UniProt P29320); conditions: Compound concentration 1000.0 nM
[26] = molecular target: Serine/threonine-protein kinase pim-1 (Homo sapiens) (UniProt P11309); conditions: Compound concentration 1000.0 nM
[27] = molecular target: Tyrosine-protein kinase ZAP-70 (Homo sapiens) (UniProt P43403); conditions: Compound concentration 1000.0 nM
[28] = molecular target: Alpha-2B adrenergic receptor (Homo sapiens) (UniProt P18089); conditions: Compound concentration 10.0 uM
[29] = molecular target: Ephrin type-A receptor 4 (Homo sapiens) (UniProt P54764); conditions: Compound concentration 1000.0 nM
[30] = molecular target: Vascular endothelial growth factor receptor 2 (Homo sapiens) (UniProt P35968); conditions: Compound concentration 1000.0 nM
[31] = molecular target: Bone morphogenetic protein receptor type-1B (Homo sapiens) (UniProt O00238); conditions: Compound concentration 1000.0 nM
[32] = system: Receptor-type tyrosine-protein kinase FLT3 (Homo sapiens), P36888 [UNDEFINED MUTATION]; conditions: Compound concentration 1000.0 nM
[33] = molecular target: Protein kinase C delta type (Homo sapiens) (UniProt Q05655); conditions: Compound concentration 1000.0 nM
[34] = system: Mast/stem cell growth factor receptor Kit (Homo sapiens), P10721 [A829P]; conditions: Compound concentration 1000.0 nM
[35] = molecular target: Membrane-associated tyrosine- and threonine-specific cdc2-inhibitory kinase (Homo sapiens) (UniProt Q99640); conditions: Compound concentration 1000.0 nM
[36] = molecular target: Ribosomal protein S6 kinase beta-1 (Homo sapiens) (UniProt P23443); conditions: Compound concentration 1000.0 nM
[37] = molecular target: GABA-A receptor; anion channel (Rattus norvegicus) (UniProt O09028+P15431+P18506+P18508+P19969+P20236+P23574+P23576+P28471+P28473+P30191+P62813+P63079+P63138+Q91ZM7+Q9ES14); conditions: Compound concentration 10.0 uM

Sequence of 5-hydroxytryptamine receptor 2B (Homo sapiens) (P41595 whole entry): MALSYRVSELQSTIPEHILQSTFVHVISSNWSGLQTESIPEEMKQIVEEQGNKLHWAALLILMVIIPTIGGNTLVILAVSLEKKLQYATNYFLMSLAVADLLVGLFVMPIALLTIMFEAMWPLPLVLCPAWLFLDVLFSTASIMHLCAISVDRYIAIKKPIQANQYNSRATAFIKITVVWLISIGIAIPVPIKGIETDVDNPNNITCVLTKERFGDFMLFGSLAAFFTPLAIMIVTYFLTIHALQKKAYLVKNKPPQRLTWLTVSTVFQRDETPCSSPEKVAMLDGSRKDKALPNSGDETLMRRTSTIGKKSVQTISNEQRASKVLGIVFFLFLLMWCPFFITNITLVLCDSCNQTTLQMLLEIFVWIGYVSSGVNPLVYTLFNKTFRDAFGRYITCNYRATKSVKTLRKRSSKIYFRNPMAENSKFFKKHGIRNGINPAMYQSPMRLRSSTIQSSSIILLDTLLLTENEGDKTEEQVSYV
Sequence of Ephrin type-B receptor 1 (Homo sapiens) (P54762 whole entry): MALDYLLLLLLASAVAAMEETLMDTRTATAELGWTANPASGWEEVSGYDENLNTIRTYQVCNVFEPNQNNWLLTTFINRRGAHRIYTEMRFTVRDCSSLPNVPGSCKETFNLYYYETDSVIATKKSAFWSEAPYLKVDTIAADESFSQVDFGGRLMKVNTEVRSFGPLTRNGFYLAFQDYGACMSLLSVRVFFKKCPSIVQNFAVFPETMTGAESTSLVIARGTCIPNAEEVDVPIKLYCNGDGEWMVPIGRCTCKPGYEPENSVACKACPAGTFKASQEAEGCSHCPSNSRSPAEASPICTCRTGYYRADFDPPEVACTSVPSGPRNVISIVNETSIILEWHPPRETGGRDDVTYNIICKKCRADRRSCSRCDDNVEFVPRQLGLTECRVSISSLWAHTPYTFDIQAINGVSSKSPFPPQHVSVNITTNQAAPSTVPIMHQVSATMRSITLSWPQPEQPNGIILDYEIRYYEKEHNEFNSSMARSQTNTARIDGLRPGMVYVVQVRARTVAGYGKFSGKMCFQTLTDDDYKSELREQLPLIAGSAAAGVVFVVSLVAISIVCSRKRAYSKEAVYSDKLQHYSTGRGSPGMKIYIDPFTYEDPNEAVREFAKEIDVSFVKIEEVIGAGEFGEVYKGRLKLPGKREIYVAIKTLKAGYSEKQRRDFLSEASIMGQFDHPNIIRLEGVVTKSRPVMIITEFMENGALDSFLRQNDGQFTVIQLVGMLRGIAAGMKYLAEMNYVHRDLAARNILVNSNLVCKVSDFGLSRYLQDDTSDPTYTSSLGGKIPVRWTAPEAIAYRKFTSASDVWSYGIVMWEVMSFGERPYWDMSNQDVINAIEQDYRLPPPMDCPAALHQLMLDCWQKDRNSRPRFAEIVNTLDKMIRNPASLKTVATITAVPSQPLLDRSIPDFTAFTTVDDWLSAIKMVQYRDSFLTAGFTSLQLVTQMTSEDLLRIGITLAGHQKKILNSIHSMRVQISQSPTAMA
Sequence of Bone morphogenetic protein receptor type-1B (Homo sapiens) (O00238 whole entry): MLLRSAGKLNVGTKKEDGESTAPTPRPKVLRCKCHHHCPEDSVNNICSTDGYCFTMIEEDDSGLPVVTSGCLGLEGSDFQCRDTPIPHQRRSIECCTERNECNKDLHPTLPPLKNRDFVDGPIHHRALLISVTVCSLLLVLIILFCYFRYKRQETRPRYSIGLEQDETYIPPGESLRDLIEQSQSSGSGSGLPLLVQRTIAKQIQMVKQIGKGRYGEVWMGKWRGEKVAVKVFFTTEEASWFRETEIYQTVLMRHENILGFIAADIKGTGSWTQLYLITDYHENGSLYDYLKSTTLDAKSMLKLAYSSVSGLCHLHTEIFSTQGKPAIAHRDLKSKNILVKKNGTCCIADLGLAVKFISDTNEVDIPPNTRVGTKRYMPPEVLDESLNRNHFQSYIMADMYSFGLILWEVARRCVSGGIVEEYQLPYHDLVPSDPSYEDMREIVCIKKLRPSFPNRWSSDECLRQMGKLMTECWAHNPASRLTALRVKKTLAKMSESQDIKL
Sequence of Serine/threonine-protein kinase TAO3 (Homo sapiens) (Q9H2K8 whole entry): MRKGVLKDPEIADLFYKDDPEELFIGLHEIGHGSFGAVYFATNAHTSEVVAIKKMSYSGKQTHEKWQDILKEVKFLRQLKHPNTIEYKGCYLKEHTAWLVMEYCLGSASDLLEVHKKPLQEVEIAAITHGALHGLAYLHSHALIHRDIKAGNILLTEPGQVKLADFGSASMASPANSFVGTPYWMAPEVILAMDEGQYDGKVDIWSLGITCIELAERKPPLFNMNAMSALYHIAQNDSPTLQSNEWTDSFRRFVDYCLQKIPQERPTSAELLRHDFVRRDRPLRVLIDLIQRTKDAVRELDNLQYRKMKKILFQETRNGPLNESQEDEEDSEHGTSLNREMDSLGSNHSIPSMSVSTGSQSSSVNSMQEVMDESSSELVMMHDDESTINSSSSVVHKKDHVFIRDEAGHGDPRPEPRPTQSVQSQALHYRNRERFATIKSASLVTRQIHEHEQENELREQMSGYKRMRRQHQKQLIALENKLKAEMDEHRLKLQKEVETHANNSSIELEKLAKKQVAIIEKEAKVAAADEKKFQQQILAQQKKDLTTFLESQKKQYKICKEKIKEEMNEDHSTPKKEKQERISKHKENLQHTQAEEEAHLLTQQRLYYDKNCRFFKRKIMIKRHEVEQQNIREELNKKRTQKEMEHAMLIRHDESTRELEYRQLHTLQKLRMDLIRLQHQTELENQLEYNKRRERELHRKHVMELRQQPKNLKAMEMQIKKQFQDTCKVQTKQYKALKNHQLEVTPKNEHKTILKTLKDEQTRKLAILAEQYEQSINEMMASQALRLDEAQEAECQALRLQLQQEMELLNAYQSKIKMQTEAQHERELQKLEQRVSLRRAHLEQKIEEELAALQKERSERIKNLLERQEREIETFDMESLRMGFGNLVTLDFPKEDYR
Sequence of Ephrin type-A receptor 3 (Homo sapiens) (P29320 whole entry): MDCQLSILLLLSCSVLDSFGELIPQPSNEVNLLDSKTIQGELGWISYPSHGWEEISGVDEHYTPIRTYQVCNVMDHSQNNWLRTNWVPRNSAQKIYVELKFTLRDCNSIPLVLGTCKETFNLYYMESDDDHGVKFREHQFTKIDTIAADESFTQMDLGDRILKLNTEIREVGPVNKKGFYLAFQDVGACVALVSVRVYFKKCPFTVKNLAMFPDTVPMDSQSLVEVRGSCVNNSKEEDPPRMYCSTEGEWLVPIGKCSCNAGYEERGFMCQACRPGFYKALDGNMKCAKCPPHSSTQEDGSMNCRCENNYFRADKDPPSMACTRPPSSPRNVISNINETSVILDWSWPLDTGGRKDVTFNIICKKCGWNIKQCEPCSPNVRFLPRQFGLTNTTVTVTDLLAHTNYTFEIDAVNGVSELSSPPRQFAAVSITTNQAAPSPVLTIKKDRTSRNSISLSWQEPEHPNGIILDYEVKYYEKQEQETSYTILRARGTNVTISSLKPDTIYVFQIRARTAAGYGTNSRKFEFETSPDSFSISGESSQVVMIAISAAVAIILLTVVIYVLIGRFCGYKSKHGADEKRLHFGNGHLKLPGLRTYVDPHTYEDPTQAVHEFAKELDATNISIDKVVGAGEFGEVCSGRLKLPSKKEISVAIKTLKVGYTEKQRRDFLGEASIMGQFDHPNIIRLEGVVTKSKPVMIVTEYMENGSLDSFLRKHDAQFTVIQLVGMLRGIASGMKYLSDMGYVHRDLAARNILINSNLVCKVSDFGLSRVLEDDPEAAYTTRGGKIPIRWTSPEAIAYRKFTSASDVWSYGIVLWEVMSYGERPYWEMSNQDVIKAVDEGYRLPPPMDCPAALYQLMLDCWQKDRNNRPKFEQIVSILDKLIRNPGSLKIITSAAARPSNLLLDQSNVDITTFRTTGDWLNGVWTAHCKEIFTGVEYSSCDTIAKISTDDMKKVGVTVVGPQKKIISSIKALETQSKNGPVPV
Sequence of Phosphatidylinositol 4,5-bisphosphate 3-kinase catalytic subunit delta isoform (Homo sapiens) (O00329 whole entry, canonical isoform): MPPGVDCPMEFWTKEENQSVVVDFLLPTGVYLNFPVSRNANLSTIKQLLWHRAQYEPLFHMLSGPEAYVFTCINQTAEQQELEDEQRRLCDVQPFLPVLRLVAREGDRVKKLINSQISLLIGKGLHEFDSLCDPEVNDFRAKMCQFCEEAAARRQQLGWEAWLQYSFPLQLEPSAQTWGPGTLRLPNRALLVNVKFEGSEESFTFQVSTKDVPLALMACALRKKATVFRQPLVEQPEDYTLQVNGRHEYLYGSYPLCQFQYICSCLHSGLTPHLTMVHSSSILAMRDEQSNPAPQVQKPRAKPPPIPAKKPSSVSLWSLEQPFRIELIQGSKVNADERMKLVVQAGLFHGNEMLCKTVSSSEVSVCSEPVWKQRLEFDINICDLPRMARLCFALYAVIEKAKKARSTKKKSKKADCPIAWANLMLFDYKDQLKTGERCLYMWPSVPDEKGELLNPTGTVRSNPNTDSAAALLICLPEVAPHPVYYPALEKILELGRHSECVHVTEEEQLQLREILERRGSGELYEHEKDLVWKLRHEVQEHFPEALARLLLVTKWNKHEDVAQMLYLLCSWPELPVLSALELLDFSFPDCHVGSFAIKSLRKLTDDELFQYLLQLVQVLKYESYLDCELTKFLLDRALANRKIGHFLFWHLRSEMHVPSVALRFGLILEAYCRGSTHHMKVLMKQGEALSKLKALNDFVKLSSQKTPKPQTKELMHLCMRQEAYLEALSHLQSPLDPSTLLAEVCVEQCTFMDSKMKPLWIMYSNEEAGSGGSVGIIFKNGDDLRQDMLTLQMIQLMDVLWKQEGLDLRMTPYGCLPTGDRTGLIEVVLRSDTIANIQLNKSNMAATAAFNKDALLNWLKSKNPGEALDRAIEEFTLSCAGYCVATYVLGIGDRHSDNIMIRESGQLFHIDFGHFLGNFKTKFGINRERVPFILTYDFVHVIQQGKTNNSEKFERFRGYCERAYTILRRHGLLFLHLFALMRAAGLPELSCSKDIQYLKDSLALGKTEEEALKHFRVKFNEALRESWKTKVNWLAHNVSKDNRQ

With `O=C(N1CCS(=O)(=O)CC1)N1C[C@H](c2ccc(OC(F)(F)F)cc2)C[C@H](c2nc(C3CC3)no2)C1` [BAY-386] the residual activity [1] was 100%, the residual activity [2] was 100% and the residual activity [3] was 95%. For the same molecule, the residual activity [4] was 100%, the residual activity [5] was 100% and the residual activity [6] was 100%. The residual activity [7] was 100%, the % Inhibition of Control Agonist Response (Mean n=2) [8] was 7% and the % of Control Agonist Response (Mean n=2) [8] was 1.6%. The residual activity [9] was 59%, the residual activity [10] was 96% and the residual activity [11] was 100%. It also gave a residual activity [12] of 73%, a residual activity [13] of 89% and a residual activity [14] of 97%. It also gave a residual activity [15] of 100%, a residual activity [16] of 87% and a residual activity [17] of 94%. The inhibition [18] was 14.9%, the inhibition [19] was -5% and the residual activity [20] was 100%. It also gave a residual activity [21] of 97%, a residual activity [22] of 100% and a residual activity [23] of 81%. It also gave a residual activity [24] of 100%, a residual activity [25] of 100% and a residual activity [26] of 100%. It also gave a residual activity [27] of 90%, an inhibition [28] of 2.41% and a residual activity [29] of 100%. It also gave a residual activity [30] of 88%, a residual activity [31] of 82% and a residual activity [32] of 100%. The residual activity [33] was 100%, the residual activity [34] was 100% and the residual activity [35] was 100%. It also gave a residual activity [36] of 100% and an inhibition [37] of -2.64%.

`Cc1noc([C@H]2C[C@@H](c3ccc(C(F)(F)F)cc3)CN(C(=O)N3CCS(=O)(=O)C3)C2)n1` [BAY-448] gave a residual activity [1] of 100%, a residual activity [2] of 100% and a residual activity [3] of 100%. The residual activity [4] was 100%, the residual activity [5] was 100% and the residual activity [6] was 100%. For the same molecule, the residual activity [7] was 84%, the % Inhibition of Control Agonist Response (Mean n=2) [8] was -3% and the % of Control Agonist Response (Mean n=2) [8] was 0.4%. The residual activity [9] was 96%, the residual activity [10] was 89% and the residual activity [11] was 70%. The residual activity [12] was 100%, the residual activity [13] was 100% and the residual activity [14] was 100%. For the same molecule, the residual activity [15] was 100%, the residual activity [16] was 91% and the residual activity [17] was 85%. It also gave an inhibition [18] of 7.2%, an inhibition [19] of -4.12% and a residual activity [20] of 89%. For the same molecule, the residual activity [21] was 100%, the residual activity [22] was 91% and the residual activity [23] was 100%. For the same molecule, the residual activity [24] was 100%, the residual activity [25] was 100% and the residual activity [26] was 100%. For the same molecule, the residual activity [27] was 100%, the inhibition [28] was -2.77% and the residual activity [29] was 100%. It also gave a residual activity [30] of 100%, a residual activity [31] of 100% and a residual activity [32] of 100%. It also gave a residual activity [33] of 100%, a residual activity [34] of 100% and a residual activity [35] of 100%. It also gave a residual activity [36] of 75% and an inhibition [37] of 28.4%.
